One assay concerns the target T1, human GnRH receptors (Homo sapiens, UniProt P30968).
T1 construct: expressed in transfected cells; host or cells: HEK 293 cells, stably transfected; membranes
T1 sequence (P30968 1-328): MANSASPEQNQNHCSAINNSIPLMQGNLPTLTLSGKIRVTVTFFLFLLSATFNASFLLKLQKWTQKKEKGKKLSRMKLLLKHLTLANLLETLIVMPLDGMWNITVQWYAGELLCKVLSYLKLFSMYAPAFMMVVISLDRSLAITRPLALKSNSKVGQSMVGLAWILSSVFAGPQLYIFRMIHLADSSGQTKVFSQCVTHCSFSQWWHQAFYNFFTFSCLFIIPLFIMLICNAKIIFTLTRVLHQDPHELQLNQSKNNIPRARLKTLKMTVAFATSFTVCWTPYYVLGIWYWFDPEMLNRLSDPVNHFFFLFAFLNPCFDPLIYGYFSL
Nature of the assay: Radioligand binding: inhibition of 125I-GnRH-A binding to human GnRH receptor membranes. Conditions: HEK 293 cell membranes. The method, then:
HEK 293 cells stably transfected with mouse or human GnRH receptors as described above were grown in Dulbecco's high-glucose, modified Eagle's medium (DMEM) supplemented with 0.2% G418, 10% fetal bovine serum (FBS) and 100 U/mL penicillin/streptomycin. GH3 cells stably transfected with the rat GnRH receptor (GGH3) were provided by Dr. William Chin (Harvard Medical School, Boston, Mass.). These cells have been extensively characterized previously (Kaiser et al., 1997). The cells were grown in low glucose DMEM containing: 100U/mL penicillin/streptomycin, 0.6% G418 and 10% heat-inactivated FBS.
(§1) HEK 293 cells containing mouse or human receptors, or rat pituitaries (Pel Freez Biologicals, Rogers, Ark.) were homogenized in buffer A containing: 50 mM Tris (pH 7.4), 0.32 M sucrose, 2 mM EGTA, 1 mM PMSF, 5 μg/ml aprotinen, 5 μg/ml Pepstatin A, and 1 μg/ml leupeptin. Homogenized cells were centrifuged at 4° C. at 20,000×g for 25 minutes, re-suspended in buffer A and re-centrifuged at 4° C. at 20,000×g for an additional 25 minutes. Total membrane protein was determined with a BCA kit (Pierce, Rockford, Ill.). Membranes were stored at −70° C. at a final membrane protein concentration of approximately 5 mg/ml.
(§2) The radioiodinated agonist analog of GnRH, [des-Gly^10,D-Ala^6]GnRH ethylamide (^125I-GnRH-A), was used as the radioligand. […] The reaction mixture was vortexed and incubated for 1 minute at room temperature. After one minute, the mixture was vortexed and allowed to incubate for an additional minute. 2 ml of 0.5 M acetic acid/1% BSA was added to the reaction tube and the mixture was added to a C18 Sep-Pak cartridge. The cartridge was washed with subsequent washes of 5 ml H2O and 5 ml 0.5 M acetic acid and then eluted with 5×1 ml of 60% CH3CN/40% 0.5 M acetic acid. The eluate was diluted with 3× volume of HPLC buffer A (0.1% TFA in H2O) and loaded onto a C18 column. The iodinated product was eluted over 20-25 min with a gradient of 25-100% CH3CN containing 0.1% TFA. The radioactive fractions (750 μl/fraction) were collected into clean polypropylene tubes containing 100 μl of 10% BSA. Fractions were assessed for biological activity by radioligand binding. Specific activity of the radioligand was approximately 2200 Ci/mmol.
(§3) Membranes were diluted to 0.01-0.5 mg/ml (depending upon the species of receptor) with assay buffer containing 50 mM HEPES (pH 7.4), 1 mM EDTA, 2.5 mM MgCl2, and 0.1% BSA. Membranes (diluted to utilize similar receptor numbers between assays) were incubated with approximately 0.04-0.06 nM ^125I-GnRH-A in the presence or absence of competing agents (0.1-10,000 nM) in a total volume of 200 μl in 96-well polypropylene plates for 1 hour at room temperature. Assays were stopped by rapid filtration onto 96-well GF/C filters soaked in 0.1% polyethylenimine (PEI) utilizing a Packard 96-well cell harvester. Filters were washed three times with ice-cold PBS (50 mM NaPO4, 0.9% NaCl, 2 mM MgCl2, and 0.02% NaN3, pH 7.4). 35 μl of scintillation cocktail was added to each filter well and filters were counted on a Packard Topcount. Control dose-response curves were generated to GnRH (0.1 nM-100 nM) in each competition binding experiment. Ki values were calculated from IC50 values according to Cheng et al., Biochemical Pharmacol. 22: 3099-3108, 1973. [formula]

In the next assay the target is T2, rat GnRH receptor (Rattus norvegicus, UniProt P30969).
T2 construct: or rat pituitaries (Pel Freez Biologicals, Rogers, Ark.) were homogenized; tissue Pel Freez Biologicals; host or cells: rat pituitaries (membrane preparation)
T2 sequence (P30969 1-327): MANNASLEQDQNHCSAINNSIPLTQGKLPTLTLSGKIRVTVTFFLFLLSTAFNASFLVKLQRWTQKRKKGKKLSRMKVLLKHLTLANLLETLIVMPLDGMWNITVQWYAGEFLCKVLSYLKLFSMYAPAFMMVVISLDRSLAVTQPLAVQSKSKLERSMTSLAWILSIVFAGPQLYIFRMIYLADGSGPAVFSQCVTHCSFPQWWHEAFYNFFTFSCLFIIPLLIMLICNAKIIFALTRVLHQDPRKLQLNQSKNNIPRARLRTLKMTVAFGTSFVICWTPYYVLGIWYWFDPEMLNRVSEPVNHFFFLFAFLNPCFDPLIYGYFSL
Nature of the assay: Radioligand binding: inhibition of 125I-GnRH-A binding to rat GnRH receptor (rat pituitary membranes). Conditions: read-out: Ki (nM), Inhibition Binding of 125I-GnRH-A to GnRH Receptors. How it is done: as §1, §2, §3

The results in this text go back to US6833372B2, “Non-peptide GnRH agents, Pharmaceutical compositions, and methods for their use” (Pfizer, Inc., priority 2002, dated 2004).

By Ki is commonly meant the equilibrium dissociation constant of an inhibitor or competing ligand from its target.

With `COCCOc1nc(OC)c(NC(=O)c2ccc(Cc3cc4c(cc3C)C(C)(C)OC4(C)C)o2)c(OC)n1` [Example A4, 5-(1,1,3,3,6-Pentamethyl-1,3-dihydro-isobenzofuran-5-ylmethyl)-furan-2-carboxylic acid [4,6-dimethoxy-2-(2-methoxy-ethoxy)-pyrimidin-5-yl]-amide], the Ki on human GnRH receptors came out at 18 nM; at rat GnRH receptor, 9.5 nM.

On to `COc1nc(NC2CCN(C)CC2)nc(OC)c1NC(=O)c1ccc(Cc2cc3c(cc2C)C(C)(C)OC3(C)C)o1` [Example D13, N-{4,6-Dimethoxy-2-[(1-methylpiperidin-4-yl)amino]pyrimidin-5-yl}-5-[(1,1,3,3,6-pentamethyl-1,3-dihydro-2-benzofuran-5-yl)methyl]-2-furamide], for which the Ki on human GnRH receptors turned out to be 38 nM; on rat GnRH receptor, 16 nM.

Regarding `COc1nc(N2CCN(CCN)CC2)nc(OC)c1NC(=O)c1ccc(Cc2cc3c(cc2C)C(C)(C)OC3(C)C)o1` [Example D15, N-{2-[4-(2-Aminoethyl)piperazin-1-yl]-4,6-dimethoxypyrimidin-5-yl}-5-[(1,1,3,3,6-pentamethyl-1,3-dihydro-2-benzofuran-5-yl)methyl]-2-furamide], the inhibition constant (Ki) amounted to 3.5 nM at human GnRH receptors and 2.4 nM on rat GnRH receptor.

For the compound `COc1nc(NCCCn2ccnc2)nc(OC)c1NC(=O)c1ccc(Cc2cc3c(cc2C)C(C)(C)OC3(C)C)o1` [Example D19, N-(2-{[3-(1H-Imidazol-1-yl)propyl]amino}-4,6-dimethoxypyrimidin-5-yl}-5-[(1,1,3,3,6-pentamethyl-1,3-dihydro-2-benzofuran-5-yl)methyl]-2-furamide], the Ki at human GnRH receptors stood at 8.7 nM; at rat GnRH receptor, 1.9 nM.

Regarding `CNCCNc1nc(OC)c(NC(=O)c2ccc(Cc3cc4c(cc3C)C(C)(C)OC4(C)C)o2)c(OC)n1` [Example D20, N-(4,6-Dimethoxy-2-{[2-(methylamino)ethyl]amino}-pyrimidin-5-yl}-5-[(1,1,3,3,6-pentamethyl-1,3-dihydro-2-benzofuran-5-yl)methyl]-2-furamide], the values for the Ki at human GnRH receptors and at rat GnRH receptor were 1 nM and 0.5 nM, respectively.

Consider `COc1nc(N(C)Cc2cccnc2)nc(OC)c1NC(=O)c1ccc(Cc2cc3c(cc2C)C(C)(C)OC3(C)C)o1` [Example D38, N-{4,6-Dimethoxy-2-[methyl(pyridin-3-ylmethyl)amino]pyrimidin-5-yl}-5-[(1,1,3,3,6-pentamethyl-1,3-dihydro-2-benzofuran-5-yl)methyl]-2-furamide], for which the inhibitory constant (Ki) on human GnRH receptors was found to be 22 nM; at rat GnRH receptor, 15 nM.

Turning to `CCCCC(CC)COCCCNc1nc(OC)c(NC(=O)c2ccc(Cc3cc4c(cc3C)C(C)(C)OC4(C)C)o2)c(OC)n1` (stereo not drawn) [Example D39, N-[2-({3-[(2-Ethylhexyl)oxy]propyl}amino)-4,6-dimethoxypyrimidin-5-yl]-5-[(1,1,3,3,6-pentamethyl-1,3-dihydro-2-benzofuran-5-yl)methyl]-2-furamide], the Ki came to 19 nM at human GnRH receptors and 5.4 nM on rat GnRH receptor.

Consider `COc1nc(N2CCC3CNC(=O)C3C2)nc(OC)c1NC(=O)c1ccc(Cc2cc3c(cc2C)C(C)(C)OC3(C)C)o1` (stereo not drawn) [Example D40, N-[4,6-Dimethoxy-2-(3-oxooctahydro-5H-pyrrolo[3,4-c]pyridin-5-yl)pyrimidin-5-yl]-5-[(1,1,3,3,6-pentamethyl-1,3-dihydro-2-benzofuran-5-yl)methyl]-2-furamide], for which the values for the Ki at human GnRH receptors and on rat GnRH receptor were 27 nM and 30 nM, respectively.

On to `COc1nc(N(C)CCCCCCO)nc(OC)c1NC(=O)c1ccc(Cc2cc3c(cc2C)C(C)(C)OC3(C)C)o1` [Example D41, N-{2-[(6-Hydroxyhexyl)(methyl)amino]-4,6-dimethoxypyrimidin-5-yl}-5-[(1,1,3,3,6-pentamethyl-1,3-dihydro-2-benzofuran-5-yl)methyl]-2-furamide], for which the values for the Ki on human GnRH receptors and on rat GnRH receptor were 12 nM and 15 nM, respectively.

For `COc1nc(NCCSCCO)nc(OC)c1NC(=O)c1ccc(Cc2cc3c(cc2C)C(C)(C)OC3(C)C)o1` [Example D42, N-[2-({2-[(2-Hydroxyethyl)thio]ethyl}amino)-4,6-dimethoxypyrimidin-5-yl]-5-[(1,1,3,3,6-pentamethyl-1,3-dihydro-2-benzofuran-5-yl)methyl]-2-furamide], the results for the inhibition constant (Ki) on human GnRH receptors and at rat GnRH receptor were 1.6 nM and 0.64 nM, respectively.

In the case of `COc1nc(NCc2ccc(N)cc2)nc(OC)c1NC(=O)c1ccc(Cc2cc3c(cc2C)C(C)(C)OC3(C)C)o1` [Example D44, N-{2-[(4-Aminobenzyl)amino]-4,6-dimethoxypyrimidin-5-yl}-5-[(1,1,3,3,6-pentamethyl-1,3-dihydro-2-benzofuran-5-yl)methyl]-2-furamide], the Ki stood at 8.6 nM at human GnRH receptors and 3.4 nM at rat GnRH receptor.

Consider `CCOCCN(CCOCC)c1nc(OC)c(NC(=O)c2ccc(Cc3cc4c(cc3C)C(C)(C)OC4(C)C)o2)c(OC)n1` [Example D49, N-{2-[Bis(2-ethoxyethyl)amino]-4,6-dimethoxypyrimidin-5-yl}-5-[(1,1,3,3,6-pentamethyl-1,3-dihydro-2-benzofuran-5-yl)methyl]-2-furamide], for which the inhibitory constant (Ki) was 36 nM at human GnRH receptors and 45 nM at rat GnRH receptor.

Turning to `COc1nc(N[C@@H](CO)CSCc2ccccc2)nc(OC)c1NC(=O)c1ccc(Cc2cc3c(cc2C)C(C)(C)OC3(C)C)o1` [Example D50, N-(2-{[(1S)-2-(Benzylthio)-1-(hydroxymethyl)ethyl]amino}-4,6-dimethoxypyrimidin-5-yl)-5-[(1,1,3,3,6-pentamethyl-1,3-dihydro-2-benzofuran-5-yl)methyl]-2-furamide], the Ki worked out at 24 nM at human GnRH receptors and 19 nM at rat GnRH receptor.

On to `COc1nc(N(CC(C)O)CC(C)O)nc(OC)c1NC(=O)c1ccc(Cc2cc3c(cc2C)C(C)(C)OC3(C)C)o1` (stereo not drawn) [Example D53, N-{2-[Bis(2-hydroxypropyl)amino]-4,6-dimethoxypyrimidin-5-yl)-5-[(1,1,3,3,6-pentamethyl-1,3-dihydro-2-benzofuran-5-yl)methyl]-2-furamide], for which the inhibition constant Ki was 4.8 nM on human GnRH receptors and 2.6 nM at rat GnRH receptor.

`COc1nc(NCC2(O)CCN(C)CC2)nc(OC)c1NC(=O)c1ccc(Cc2cc3c(cc2C)C(C)(C)OC3(C)C)o1` [Example D56, N-(2-{[(4-Hydroxy-1-methylpiperidin-4-yl)methyl]amino}-4,6-dimethoxypyrimidin-5-yl)-5-[(1,1,3,3,6-pentamethyl-1,3-dihydro-2-benzofuran-5-yl)methyl]-2-furamide Acetate]: the values for the Ki at human GnRH receptors and at rat GnRH receptor were 30 nM and 14 nM, respectively.
